For 40 molecules, LC retention time results are on record in the RepoRT retention time repository (doi:10.1021/acs.analchem.1c00972).

The nature of data set [1]: RP, Waters ACQUITY UPLC BEH C18, 100 × 1 mm, 1.7 µm, 50 °C, 0.3 mL/min, estimated dead time 0.17 min; A: water + 10 mM ammonium bicarbonate; B: 10% water + 90% methanol + 10 mM ammonium bicarbonate; gradient (min/%B) 0/0 15/100 21/100 22/0 30/0. The conditions noted are these: stereoisomer not certain.
The nature of data set [2]: RP, Waters ACQUITY UPLC BEH C18, 100 × 1 mm, 1.7 µm, 50 °C, 0.3 mL/min, estimated dead time 0.17 min; A: water + 0.1% formic acid + 20 mM ammonium formate; B: methanol + 0.1% formic acid + 20 mM ammonium formate; gradient (min/%B) 0/0 15/100 21/100 22/0 30/0. The conditions noted are these: stereoisomer not certain.

Regarding `CCOCN(C(=O)CCl)c1c(C)cccc1CC` [Acetochlor], the LC retention time in data set [1] was 15.3 min; in data set [2], 15 min.
On the same counts, the results for `CC=C(C)C(=O)OC1CCN2CC=C(COC(=O)C(O)(C(C)OC)C(C)(C)O)C12` (stereo not given) [Lasiocarpine] are 13.9 min and 10.4 min.
The corresponding values for `CCN(CC)CC#CCOC(=O)C(O)(c1ccccc1)C1CCCCC1` (stereo not given) [Oxybutynin] are 17.2 min and 13.6 min.
The corresponding values for `CCC(C)(CC)c1cc(NC(=O)c2c(OC)cccc2OC)on1` [Isoxaben] are 14.6 min and 14.4 min.
Regarding `CCN(CC)C(=O)SCc1ccc(Cl)cc1` [Thiobencarb], the LC retention time is 16.4 min in data set [1] and 16 min in data set [2].
As for `NC(=O)C1(N2CCCCC2)CCN(CCCC(=O)c2ccc(F)cc2)CC1` [Pipamperone], the values for the LC retention time in data set [1] and in data set [2] were 14.5 min and 9.31 min, respectively.
The corresponding values for `O=C(Nc1ccccc1)Nc1ccccc1Cl` [1-(2-CHLOROPHENYL)-3-PHENYLUREA] are 14.2 min and 13.9 min.
`COc1ccccc1Oc1c(NS(=O)(=O)c2ccc(C(C)(C)C)cc2)nc(-c2ncccn2)nc1OCCO` [Bosentan]: the LC retention time in data set [1] is 13.4 min; in data set [2] it was 14.9 min.
On to `CN(C)S(=O)(=O)Nc1ccccc1` [DMSA], for which the LC retention time in data set [1] and in data set [2] was 10.7 min in each case.
Regarding `Nc1cccc2c(N)cccc12` [1,5-Naphthalenediamine], the LC retention time in data set [1] was 6.92 min; in data set [2], 2.7 min.
Consider `CCOC(=O)CCN(SN(C)C(=O)Oc1cccc2c1OC(C)(C)C2)C(C)C` [Benfuracarb], for which the LC retention time in data set [1] was 17 min; in data set [2], 16.6 min.
On the same counts, the results for `COC(C)C(O)(C(=O)OCC1=CCN2CCC(O)C12)C(C)C` (stereo not given) [Heliotrine] are 11.6 min and 8.05 min.
For `CCCN(CCC)CCC` [Tripropylamine], the values for the LC retention time in data set [1] and in data set [2] were 12.5 min and 6.53 min, respectively.
On the same counts, the results for `CCC(C)C1OC2(C=CC1C)CC1CC(CC=C(C)C(OC3CC(OC)C(OC4CC(OC)C(NC(C)=O)C(C)O4)C(C)O3)C(C)C=CC=C3COC4C(O)C(C)=CC(C(=O)O1)C34O)O2` (stereo not given) [Eprinomectin B1a] are 18.3 min and 17.9 min.
The corresponding values for `CCC(C)(C)C(=O)OC1=C(c2ccc(Cl)cc2Cl)C(=O)OC12CCCCC2` [Spirodiclofen] are 18 min and 17.6 min.
In the case of `COCN(COC)c1nc(N(COC)COC)nc(N(COC)COC)n1` [Hexa(methoxymethyl)melamine], the values for the LC retention time in data set [1] and in data set [2] were 12.9 min and 12.6 min, respectively.
Take `CC(C)OC(=O)C(C)(C)Oc1ccc(C(=O)c2ccc(Cl)cc2)cc1` [Fenofibrate]: the LC retention time in data set [1] is 17.3 min; in data set [2], 17 min.
The corresponding values for `CCCNC(C)C(=O)Nc1ccccc1C` (stereo not given) [Prilocaine] are 13.8 min and 8.85 min.
The corresponding values for `Cc1cc(C)c2ccccc2n1` [2,4-Dimethylchinolin] are 13.6 min and 7.37 min.
The corresponding values for `CC=C1CC(C)C(O)(CO)C(=O)OCC2=CCN3CCC(OC1=O)C23` (stereo not given) [Retrorsine] are 11.6 min and 7.62 min.
Turning to `CC(C)c1ccc2sc3ccccc3c(=O)c2c1` [2-Isopropylthioxanthone], the LC retention time is 17.5 min in data set [1] and 17.2 min in data set [2].
The corresponding values for `CN1COCN(Cc2cnc(Cl)s2)C1=O` are 9.5 min and 9.42 min.
As to `C=C1CC(=CC)C(=O)OC2CCN3CC=C(COC(=O)C1(C)O)C23` (stereo not given) [Seneciphylline], the LC retention time in data set [1] was 11.8 min; in data set [2], 7.89 min.
Take `CCCCCCOC(=O)c1ccccc1C(=O)OCC(CC)CCCC` (stereo not given) [2-Ethylhexyl(hexyl)phthalate]: the LC retention time in data set [1] is 19.4 min; in data set [2], 18.9 min.
On the same counts, the results for `CC(CCc1ccccc1)NCC(O)c1ccc(O)c(C(N)=O)c1` (stereo not given) [Labetalol] are 12.8 min and 10.6 min.
On to `COc1cc(OC)n2nc(S(=O)(=O)Nc3c(Cl)ccc(C)c3Cl)nc2n1` [Metosulam], for which the LC retention time in data set [1] is 10.9 min; in data set [2], 12 min.
On the same counts, the results for `CC1CC2C3CCC4=CC(=O)C=CC4(C)C3(F)C(O)CC2(C)C1(O)C(=O)CCl` (stereo not given) [Clobetasol] are 14.4 min and 14.1 min.
With `CC=C1CC2(CO)OC2(C)C(=O)OCC2=CCN3CCC(OC1=O)C23` (stereo not given) [Erucifoline], the LC retention time in data set [1] is 10.2 min; in data set [2], 6 min.
The corresponding values for `CCN1CC2(COC)C(O)CC(OC)C34C5CC6(O)C(OC)C(O)C(OC(C)=O)(C5C6OC(=O)c5ccccc5)C(C(OC)C23)C14` (stereo not given) [Aconitin] are 15.7 min and 12.1 min.
On the same counts, the results for `CCCCCCCCCCCC(=O)N(CCO)CCO` [Lauryl diethanolamide] are 16.8 min and 16.4 min.
The corresponding values for `COc1cc2c(c3oc4cccc(O)c4c(=O)c13)C1C=COC1O2` (stereo not given) [Sterigmatocystin] are 15 min and 14.6 min.
`c1ccc2sc(SSc3nc4ccccc4s3)nc2c1` [2,2-Dibenzothiazoyl disulfide]: the LC retention time in data set [1] was 13.9 min; in data set [2], 17.2 min.
Turning to `CC(Cl)COP(=O)(OCC(C)Cl)OCC(C)Cl` (stereo not given) [Tris(2-chloropropyl) phosphate], the LC retention time in data set [1] is 14.6 min; in data set [2] it was 14.4 min.
On the same counts, the results for `CC1(C)SC2C(NC(=O)C(N)c3ccc(O)cc3)C(=O)N2C1C(=O)O` (stereo not given) [Amoxicillin] are 6.74 min and 5.66 min.
The corresponding values for `CC12CCC(=O)C=C1C=CC1C2CCC2(C)C1CCC21CCC(=O)O1` (stereo not given) [Canrenone] are 14.5 min and 14.2 min.
In the case of `Cc1cccc2sc3nncn3c12` [Tricyclazole], the LC retention time in data set [1] is 10.4 min; in data set [2], 10.3 min.
Turning to `CC1=C2C(=O)C3C(CC=C4CC(O)CCC43C)C2CCC12OC1CC(C)CNC1C2C` (stereo not given) [Jervine], the LC retention time in data set [1] is 15.2 min; in data set [2], 11.7 min.
The corresponding values for `O=C(O)COCCN1CCN(C(c2ccccc2)c2ccc(Cl)cc2)CC1` (stereo not given) [Cetirizine] are 14.8 min and 13.6 min.
As for `CCC1OC(=O)C(C)C(OC2CC(C)(OC)C(O)C(C)O2)C(C)C(OC2OC(C)CC(N(C)C)C2O)C(C)(O)CC(C)C(=NOCOCCOC)C(C)C(O)C1(C)O` (stereo not given) [Roxithromycin], the LC retention time in data set [1] is 16.9 min; in data set [2], 14.3 min.
The corresponding values for `CC(=O)OC(C)(C)C=CC(=O)C(C)(O)C1C(O)CC2(C)C3CC=C4C(C=C(O)C(=O)C4(C)C)C3(C)C(=O)CC12C` (stereo not given) [Cucurbitacin E] are 14.7 min and 14.4 min.
